Assay results reported in US11604141B2, “Zinc-selective fluorescent probes for emission-ratiometric imaging” (Georgia Tech Research Corporation, priority 2017, dated 2023).
Counter-ions that a name gives are not always drawn.

Tests used:
[1] = UV-vis absorption spectra in methanol; type: physicochemical; conditions: methanol at 298 K, relative to compound I
Source text: FIG. 26: UV-vis absorption spectra of compounds I, […] in methanol at 298 K.
UV-vis Spectral Characterization of Compounds I, II, and III.

[2] = tested on: labile Zn(II) pools in live NIH 3T3 mouse fibroblasts; assay: Ratiometric TPEM imaging of labile Zn(II) in live cells; type: cell-based
Method: FIG. 25A-25B. Ratiometric imaging of labile Zn(II) pools in live NIH 3T3 mouse fibroblasts with chromis-2 by TPEM (excitation at 720 nm). (FIG. 25A) Left: Phase contrast image (DIC) and fluorescence intensity images acquired with 425-462 nm (BP1) and 478-540 nm (BP2) bandpass filters, respectively. Right: Intensity ratio image with R=BP2/BP1. (FIG. 25B) Left: Ratio images (BP2/BP1) prior (at 3 min) and after addition of 50 μM ZnSO4 and 5 μM pyrithione (at 9 min). […] Right: Time course of the average intensity ratio change for the ROI indicated with a white circle in the left panel. The asterisks indicate time points for the respective ratio images shown to the left. Scale bars: 40 μm.
To evaluate the Zn(II)-dependent ratiometric response of chromis-2 within the chemical complexity of a live cell, we performed a perfusion experiment with NIH 3T3 mouse fibroblasts as model system (FIG. 25). To this end, fibroblast cells were cultured in Dulbecco's modified Eagle's medium (DMEM, Lonza) supplemented with 10% bovine serum (Gemini), penicillin/streptomycin (50 IU/mL), 200 μM L-glutamine, and 100 μM sodium pyruvate at 37° C. under an atmosphere of humidified air containing 5% CO2. For imaging experiments, cells were grown to 70% confluency on MatTek glass bottom culture dishes pre-coated with poly-L-lysine using phenol red-free DMEM (10% bovine serum, 50 IU/mL penicillin/streptomycin, 200 μM L-glutamine, and 100 μM sodium pyruvate). After replacing the growth medium with serum-free DMEM containing chromis-2 (10 μM), cells were incubation for 30 minutes at 37° C. (5% CO2 atmosphere), and the incubation solution was again replaced with pre-warmed full media. Cells were imaged in an atmospheric chamber at 37° C., […], and 5% CO2 using a Zeiss LSM confocal NLO 710 microscope equipped with a femtosecond pulsed Ti:sapphire laser. Scanning fluorescence micrographs were acquired with excitation at 720 nm, and the integrated emission intensity was simultaneously collected through two band pass filters between 425-462 nm and 478-540 nm. The corresponding ratio-images were derived with ImageJ based on the integrated photon counts on a pixel-per-pixel basis (FIG. 25A, right). […] Although the fluorescence intensity distribution appears uneven, including distinct punctate localizations, the corresponding ratio-image indicates a rather even fractional saturation with an average ratio R of 0.64±0.2.

[3] = Excited-state pKa calculated using the Forster Cycle; type: physicochemical; conditions: calculated with the Forster Cycle
Source text: To circumvent the issue of excited-state protonation of the fluorophore, the inventors synthesized a chromis-1 compound 1, whose structure lacked the bis(2-pyridylmethyl)amine chelating moiety but incorporated an O-alkylsulfonate group to enhance water solubility, to determine the unperturbed ground-state pKa of the pyridyl acceptor.

[4] = Determination of fluorescence quantum yields (referenced to quinine sulfate); type: physicochemical; conditions: neutral form, 10 mM PIPES, 100 mM KCl, pH 7.0; sodium salt
Method: Determination of Fluorescence Quantum Yields. Fluorescence quantum yields of 1, 2, 3b and chromis-2 (4) were determined in aqueous buffer (10 mM PIPES, 0.1 M KCl) at pH 7.0 by a 4-point measurement over an OD range of 0.1-0.4 using a […], with fluorimeter excitation at 365 nm. For probes 3b and chromis-2, the solutions containing the free forms were supplemented with 20 μM EDTA (from a 30 mM stock solution in diH2O) to sequester adventitious Zn(II), whereas to determine the Zn(II)-bound forms, the solutions were supplemented with 20 μM ZnSO4.7H2O to ensure complete saturation of the fluorophore. Fluorescence quantum yields for all fluorophores were determined using quinine sulfate (Df=0.546 in 1.0 N H2SO4) as a fluorescence standard.^2 To determine the quantum yield of 3a, single-point measurements were performed in aqueous buffer (10 mM PIPES, 0.1 M KCl, pH 7.0) supplemented with 100 μM 4:1 DMPC:DMPG liposomes and at a probe concentration of 2 μM. The quantum yields were also referenced to quinine sulfate with an OD matching that of 3a (2 μM) in liposomes.

[5] = Fluorescence solvent deuterium-isotope studies (D2O vs H2O buffer); type: physicochemical
Method: Fluorescence Deuterium-Isotope Studies of Compounds 1 & 2. Comparison of the fluorescence intensities of compounds 1 and 2 were conducted in deuterated and non-deuterated buffer (10 mM PIPES, 100 mM KCl, pH/D 7.0, 25° C.). A 3.0-mL solution of aqueous buffer was supplemented with 10 μM of each compound (from 3 mM stock solutions in H2O), and after thorough mixing via magnetic stirring, fluorescence spectra of 1 were acquired over the spectral window of 380-700 nm with excitation at […] and analogous fluorescence spectra of 2 were acquired over the spectral window of 380-650 nm with excitation at […].
Fluorescence Comparison of 3b and chromis-2 (4). Fluorescence comparison measurements of 3b and chromis-2 were conducted in deuterated and non-deuterated buffer (10 mM PIPES, 100 mM KCl, pH/D 7.0, 25° C.). A quartz cuvette with a 1-cm path length containing 3.0 mL of aqueous buffer was supplemented with 5 μM 3b (from a 3 mM stock solution in H2O), and after a 30-second equilibration via magnetic stirring, a fluorescence spectrum was acquired over the spectral window of 380-700 nm with excitation at 361 nm. The probe was then saturated with 5 μM ZnSO4.7H2O (from a 3 mM stock solution in H2O), and a fluorescence spectrum was acquired. This was repeated for 3b in deuterated buffer, but with supplementation of 5 μM ZnSO4.7H2O from a 3 mM stock solution in D2O. […]

[6] = Steady-state absorption and fluorescence spectroscopy, molar ratio titration with Zn(II); type: physicochemical
Method: General Spectroscopic Methods. All buffers and stock solutions used for spectroscopic measurements were prepared using either HPLC-grade water (JT Baker) or 18.2 MΩ.cm Mili-Q water and filtered through a 0.2 μm filter to remove interfering dust particles or fibers. UV-Vis measurements were performed on a Varian Cary Bio50 spectrophotometer with a constant temperature accessory (Peltier) at 25° C. Fluorescence measurements were performed with a PTI fluorimeter equipped with a 75 W xenon arc lamp excitation source and a photomultiplier detection system (PMT voltage was 1100 V for all experiments). Fluorescence spectra were corrected for the spectral response of the detection system and for the spectral irradiance of the excitation source (via a calibrated photodiode). For all experiments, both UV-Vis and fluorescence, a 1-cm path length quartz cuvette was used, except for quantum yield determinations, which were performed with a 10-cm path length quartz cuvette for absorbance measurements.
Molar Ratio Titration of Probe 3b with Zn(II). […] After each aliquot, the solution was equilibrated for 30 seconds by magnetic stirring, and an absorbance (spectral window: 250-500 nm) (FIG. 14A) and fluorescence spectrum (excitation: 361 nm, spectral window: 380-700 nm) (FIG. 14B) were acquired.
Molar Ratio Titration of Chromis-2 with Zn(II). […] After each aliquot, the solution was equilibrated for 30 seconds by magnetic stirring, and an absorbance (spectral window: 250-500 nm) and fluorescence spectrum (excitation: 361 nm, spectral window: 380-700 nm) were acquired.

[7] = Spectrophotometric pH titration, determination of protonation constants; type: physicochemical; conditions: aqueous 0.1 M KCl solution, 25° C., fit to a single protonation, read-out: ground-state pKa (pKH1) of the pyridyl acceptor
Method: FIG. 12. Spectrophotometric pH titration of compound 1 at 25° C. in aqueous buffer (5 mM PIPBS, 0.1 M KCl, 5 mM KOH, pH 5.6). Black arrows indicate the change in absorbance after each aliquot of HCl was added. The absorbance from 250-500 nm was recorded as a function of pHe (−log[H3O^+]), and the data were analyzed by non-linear least squares fitting to a single protonation to yield an average pKH1=4.49±0.002 (n=3).
FIG. 13. Spectrophotometric pH titration of compound 2 at 25° C. in 0.1 M KCl. Black arrows indicate the change in absorbance after each aliquot of HCl was added. The absorbance (250-500 nm) was recorded as a function of pHc (−log[H3O^+]), and the data were analyzed by non-linear least squares fitting to a single protonation to yield an average pKH1=2.34±0.002 (n=3).
Protonation constants were determined as concentration constants (log KH) based on potentiometric titrations using a combination double junction glass electrode. […] From the experimental emf data, the endpoint, electrode potential, and slope were determined using Gran's Method as implemented in the GLEE software package (pKw=13.78, μ=0.1 M KCl).^1 The calibration procedure was performed prior to each potentiometric titration, and the experimental electrode potential and slope that were used to calculate the experimental p[H] were derived as the average of the emf data from three independent titrations. […]

[8] = in 1N H2SO4; cited from earlier work
[9] = Neutral, 10 mM PIPES, 100 mM KCl, pH 7.0

Row | SMILES | change of UV-vis absorption spectrum (in words) [1] | pKa [3] | ΦF fluorescence quantum yield [4] | Abs λmax [6, 9] [nm] | Em λmax [6, 9] [nm] | ε [6, 9] | Abs λmax ([6]; Protonated, 0.1N HCl (pH 1.0)) [nm] | Em λmax ([6]; Protonated, 0.1N HCl (pH 1.0)) [nm] | ε ([6]; Protonated, 0.1N HCl (pH 1.0)) | pKa [7] | further results
1 | COc1ccc(-c2ccc(-c3cnc(-c4ccccn4)s3)s2)cc1 [Compound III] | red-shifted absorption spectrum |  |  |  |  |  |  |  |  |  | 
2 | COc1ccc(-c2cnc(-c3cccc(CN(Cc4ncccn4)Cc4ncccn4)n3)s2)cc1 [chromis-2] |  |  |  |  |  |  |  |  |  |  | increase of intensity ratio upon ZnSO4 and pyrithione ([2]; NIH 3T3): more than 4 fold; average intensity ratio R (BP2/BP1), initial ([2]; NIH 3T3, 10 μM probe, excitation 720 nm, before additions): 0.64±0.2; intensity ratio R after ZnSO4 and pyrithione ([2]; NIH 3T3, 50 μM ZnSO4 and 5 μM pyrithione): 2.36±0.6; intensity ratio R after TPEN ([2]; NIH 3T3, 100 μM TPEN): 0.55±0.2
3 | C=C[C@H]1C[N@@]2CC[C@H]1C[C@H]2[C@H](O)c1ccnc2ccc(OC)cc12 [quinine sulfate] |  |  |  |  |  |  |  |  |  |  | ΦF of fluorescence standard [8]: 0.546

More lines, main results first:

Row | change of UV-vis absorption spectrum (in words) [1] | pKa [3] | ΦF fluorescence quantum yield [4] | Abs λmax [6, 9] [nm] | Em λmax [6, 9] [nm] | ε [6, 9] | Abs λmax ([6]; Protonated, 0.1N HCl (pH 1.0)) [nm] | Em λmax ([6]; Protonated, 0.1N HCl (pH 1.0)) [nm] | ε ([6]; Protonated, 0.1N HCl (pH 1.0)) | pKa [7] | SMILES | further results
4 | red-shifted absorption spectrum |  |  |  |  |  |  |  |  |  | CN(C)c1ccc(-c2cnc(-c3ccccn3)s2)cc1 [Compound II] | 
5 |  | ~11.7 | 0.65 | 346 | 489 | 1.80 10^4 M^−1cm^−1 | 397 | 582 | 1.96 10^4 M^−1cm^−1 | 4.49 ± 0.002 | O=S(=O)([O-])CCCOc1ccc(-c2cnc(-c3ccncc3)s2)cc1.[Na+] [compound 1, 3-(4-(2-(pyridin-4-yl)thiazol-5-yl)phenoxy)propane-1-sulfonate sodium salt] | increase in fluorescence intensity in D2O relative to H2O ([5]; 10 mM PIPES, 0.1 M KCl, pH/D 7.0, 25° C.): 18%
6 |  | 9.4 | 0.80 | 345 | 467 | 2.25 10^4 M^−1cm^−1 | 386 | 565 | 2.05 10^4 M^−1cm^−1 | 2.34 | O=S(=O)([O-])CCCOc1ccc(-c2cnc(-c3ccccn3)s2)cc1.[Na+] [compound 2, 3-(4-(2-(pyridin-2-yl)thiazol-5-yl)phenoxy)propane-1-sulfonate sodium salt] | excited-state pKa (pKa*) ([3]; sodium salt): 9.5; solvent deuterium isotope effect on emission (in words) ([5]; D2O versus H2O buffers): identical emission profiles
